US20250129070A1, “BIFUNCTIONAL ANDROGEN RECEPTOR COMPOUNDS” (priority 2023, published 2025)

Tests used:
VCaP cells = assay: VCaP growth inhibition assay; assay type: cell-based; conditions: 30 pM R1881, 9 days, CTG
Method in brief: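 Growth read by CTG luminescence after 9-day exposure to compound (final 100 nM–10 fM, 1:5 steps) plus 30 pM R1881, in phenol red-free DMEM with 5% CSS. Cells pre-incubated 72 h before dosing; IC50 by nonlinear 4-parameter regression.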

AR / CBP ternary complex = assay: Ternary complex formation assay (sandwich ELISA, AR capture / CBP detection) in VCaP cell lysates; assay type: cell-based; conditions: 1.5 hours treatment, sandwich ELISA (AR capture, CBP or p300 detection)
Method in brief: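 Anti-AR (AR 441)-coated plates capture AR from lysates of VCaP cells grown ≥3 days at 50K/well in 5% charcoal-stripped FBS, dosed with bifunctional for 1.5 h and lysed 30 min at 4 °C. Co-captured CBP/p300 is probed with rabbit mAb and HRP anti-rabbit, then QuantaRed fluorescence (570/585) is read at 0, 5 and 15 min.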

SMILES	IC50 (VCaP cells)	EC50 (AR / CBP ternary complex)
COc1cc(OC2C(C)(C)C(NC(=O)c3ccc(N4CCC(CCc5ccc(-c6cc7cccc(-c8nn(C9CCOCC9)c9c8CN(C(C)=O)CC9)c7cn6)cc5)CC4)cc3)C2(C)C)ccc1C#N (stereo not drawn) [Compound 254, 4-[4-[2-[4-[8-(5-acetyl-1-tetrahydropyran-4-yl-6,7-dihydro-4H-pyrazolo[4,3-c]pyridin-3-yl)-3-isoquinolyl]phenyl]ethyl]-1-piperidyl]-N-[3-(4-cyano-3-methoxy-phenoxy)-2,2,4,4-tetramethyl-cyclobutyl]benzamide]	0.1 to 1 nM	< 1 nM
CC(=O)N1CCc2c(c(Nc3ccc(-c4cnn(C)c4)cc3F)nn2C2CCN(C(=O)COC3CCN(c4ncc(C(=O)NC5C(C)(C)C(Oc6ccc(C#N)c(Cl)c6)C5(C)C)cn4)CC3)CC2)C1 (stereo not drawn) [Compound 177, 2-[4-[2-[4-[5-acetyl-3-[2-fluoro-4-(1-methylpyrazol-4-yl)anilino]-6,7-dihydro-4H-pyrazolo[4,3-c]pyridin-1-yl]-1-piperidyl]-2-oxo-ethoxy]-1-piperidyl]-N-[3-(3-chloro-4-cyano-phenoxy)-2,2,4,4-tetramethyl-cyclobutyl]pyrimidine-5-carboxamide]	> 100 nM	< 1 nM
COc1cc(OC2C(C)(C)C(NC(=O)c3ccc(N4CCN(CCc5ccc(-c6cc7cccc(-c8nn(C9CCOCC9)c9c8CN(C(C)=O)CC9)c7cn6)cn5)CC4)cc3)C2(C)C)ccc1C#N (stereo not drawn) [Compound 250, 4-[4-[2-[5-[8-(5-acetyl-1-tetrahydropyran-4-yl-6,7-dihydro-4H-pyrazolo[4,3-c]pyridin-3-yl)-3-isoquinolyl]-2-pyridyl]ethyl]piperazin-1-yl]-N-[3-(4-cyano-3-methoxy-phenoxy)-2,2,4,4-tetramethyl-cyclobutyl]benzamide]	≤ 0.1 nM	< 1 nM
CC(=O)N1CCc2c(c(N3CCCc4cc(-c5cnn(C)c5)c(C(F)F)cc43)nn2C2CCN([C@H]3CCN(c4ncc(C(=O)NC5C(C)(C)C(Oc6ccc(C#N)c(Cl)c6)C5(C)C)cn4)C3)CC2)C1 (stereo partly drawn) [Compound 334, 2-[(3S)-3-[4-[5-acetyl-3-[7-(difluoromethyl)-6-(1-methylpyrazol-4-yl)-3,4-dihydro-2H-quinolin-1-yl]-6,7-dihydro-4H-pyrazolo[4,3-c]pyridin-1-yl]-1-piperidyl]pyrrolidin-1-yl]-N-[3-(3-chloro-4-cyano-phenoxy)-2,2,4,4-tetramethyl-cyclobutyl]pyrimidine-5-carboxamide]	0.1 to 1 nM	< 1 nM
CC(=O)N1CCc2c(c(-c3cccc4cc(-c5cnn(CC6CC7(C6)CN(c6ncc(C(=O)NC8C(C)(C)C(Oc9ccc(C#N)c(Cl)c9)C8(C)C)cn6)C7)c5)ncc34)nn2C2CCOCC2)C1 (stereo not drawn) [Compound 223, 2-[6-[[4-[8-(5-acetyl-1-tetrahydropyran-4-yl-6,7-dihydro-4H-pyrazolo[4,3-c]pyridin-3-yl)-3-isoquinolyl]pyrazol-1-yl]methyl]-2-azaspiro[3.3]heptan-2-yl]-N-[3-(3-chloro-4-cyano-phenoxy)-2,2,4,4-tetramethyl-cyclobutyl]pyrimidine-5-carboxamide]	≤ 0.1 nM	< 1 nM
CC(=O)N1CCc2c(c(N3CCCc4cc(C#N)c(C(F)F)cc43)nn2C2CCN(CC3CCN(c4ncc(C(=O)NC5C(C)(C)C(Oc6ccc(C#N)c(Cl)c6)C5(C)C)cn4)CC3(C)C)CC2)C1 (stereo not drawn) [Compound 450, 2-[4-[[4-[5-acetyl-3-[6-cyano-7-(difluoromethyl)-3,4-dihydro-2H-quinolin-1-yl]-6,7-dihydro-4H-pyrazolo[4,3-c]pyridin-1-yl]-1-piperidyl]methyl]-3,3-dimethyl-1-piperidyl]-N-[3-(3-chloro-4-cyano-phenoxy)-2,2,4,4-tetramethyl-cyclobutyl]pyrimidine-5-carboxamide]	0.1 to 1 nM	< 1 nM
COc1cc(OC2C(C)(C)C(NC(=O)c3ccc(N4CCC(C5CN(c6ccc(-c7cc8cccc(-c9nn(C%10CCOCC%10)c%10c9CN(C(C)=O)CC%10)c8cn7)cn6)C5)CC4)cc3)C2(C)C)ccc1C#N (stereo not drawn) [Compound 268, 4-[4-[1-[5-[8-(5-acetyl-1-tetrahydropyran-4-yl-6,7-dihydro-4H-pyrazolo[4,3-c]pyridin-3-yl)-3-isoquinolyl]-2-pyridyl]azetidin-3-yl]-1-piperidyl]-N-[3-(4-cyano-3-methoxy-phenoxy)-2,2,4,4-tetramethyl-cyclobutyl]benzamide]	0.1 to 1 nM	< 1 nM
CC(=O)N1CCc2c(c(N3CCCc4cc(C#N)ccc43)nn2C2CC3(C2)CN(C(=O)C2CC4(C2)CN(c2ncc(C(=O)NC5C(C)(C)C(Oc6ccc(C#N)c(Cl)c6)C5(C)C)cn2)C4)C3)C1 (stereo not drawn) [Compound 220, 2-[6-[6-[5-acetyl-3-(6-cyano-3,4-dihydro-2H-quinolin-1-yl)-6,7-dihydro-4H-pyrazolo[4,3-c]pyridin-1-yl]-2-azaspiro[3.3]heptane-2-carbonyl]-2-azaspiro[3.3]heptan-2-yl]-N-[3-(3-chloro-4-cyano-phenoxy)-2,2,4,4-tetramethyl-cyclobutyl]pyrimidine-5-carboxamide]	1 to 100 nM	< 1 nM
CC(=O)N1CCc2c(c(N3CCCc4cc(-c5cnn(C)c5)c(C(F)F)cc43)nn2C2CCN([C@H]3CCCN(c4ncc(C(=O)NC5C(C)(C)C(Oc6ccc(C#N)c(Cl)c6)C5(C)C)cn4)C3)CC2)C1 (stereo partly drawn) [Compound 397, 2-[(3S)-3-[4-[5-acetyl-3-[7-(difluoromethyl)-6-(1-methylpyrazol-4-yl)-3,4-dihydro-2H-quinolin-1-yl]-6,7-dihydro-4H-pyrazolo[4,3-c]pyridin-1-yl]-1-piperidyl]-1-piperidyl]-N-[3-(3-chloro-4-cyano-phenoxy)-2,2,4,4-tetramethyl-cyclobutyl]pyrimidine-5-carboxamide]	> 100 nM	1 to 10 nM
CC(=O)N1CCc2c(c(-c3cccc4cc(-c5cnn(CCC6CCN(c7ncc(C(=O)NC8C(C)(C)C(Oc9ccc(C#N)c(Cl)c9)C8(C)C)cn7)CC6)c5)ncc34)nn2C2CCOCC2)C1 (stereo not drawn) [Compound 139, 2-[4-[2-[4-[8-(5-acetyl-1-tetrahydropyran-4-yl-6,7-dihydro-4H-pyrazolo[4,3-c]pyridin-3-yl)-3-isoquinolyl]pyrazol-1-yl]ethyl]-1-piperidyl]-N-[3-(3-chloro-4-cyano-phenoxy)-2,2,4,4-tetramethyl-cyclobutyl]pyrimidine-5-carboxamide]	≤ 0.1 nM	> 100 nM
COc1cc(OC2C(C)(C)C(NC(=O)c3ccc(N4CC[C@H](N5CCC(n6nc(N7CCCc8cc(-c9cnn(C)c9)c(C(F)F)cc87)c7c6CCN(C(C)=O)C7)CC5)C4)cc3)C2(C)C)ccc1C#N (stereo partly drawn) [Compound 336, 4-[(3S)-3-[4-[5-acetyl-3-[7-(difluoromethyl)-6-(1-methylpyrazol-4-yl)-3,4-dihydro-2H-quinolin-1-yl]-6,7-dihydro-4H-pyrazolo[4,3-c]pyridin-1-yl]-1-piperidyl]pyrrolidin-1-yl]-N-[3-(4-cyano-3-methoxy-phenoxy)-2,2,4,4-tetramethyl-cyclobutyl]benzamide]	1 to 100 nM	< 1 nM
COc1cc(OC2C(C)(C)C(NC(=O)c3ccc(N4CCC(CN5CCC(n6nc(N7CCCc8cc(-c9cnn(C)c9)c(C)cc87)c7c6CCN(C(C)=O)C7)CC5)C(C)(C)C4)cc3)C2(C)C)ccc1C#N (stereo not drawn) [Compound 447, 4-[4-[[4-[5-acetyl-3-[7-methyl-6-(1-methylpyrazol-4-yl)-3,4-dihydro-2H-quinolin-1-yl]-6,7-dihydro-4H-pyrazolo[4,3-c]pyridin-1-yl]-1-piperidyl]methyl]-3,3-dimethyl-1-piperidyl]-N-[3-(4-cyano-3-methoxy-phenoxy)-2,2,4,4-tetramethyl-cyclobutyl]benzamide]	0.1 to 1 nM	< 1 nM
CC(=O)N1CCc2c(c(N3CCCc4cc(-c5cnn(C)c5)c(C(F)F)cc43)nn2CCN(C)c2ncc(C(=O)NC3C(C)(C)C(Oc4ccc(C#N)c(Cl)c4)C3(C)C)cn2)C1 (stereo not drawn) [Compound 45, 2-[2-[5-acetyl-3-[7-(difluoromethyl)-6-(1-methylpyrazol-4-yl)-3,4-dihydro-2H-quinolin-1-yl]-6,7-dihydro-4H-pyrazolo[4,3-c]pyridin-1-yl]ethyl-methyl-amino]-N-[3-(3-chloro-4-cyano-phenoxy)-2,2,4,4-tetramethyl-cyclobutyl]pyrimidine-5-carboxamide]	> 100 nM	> 100 nM
CC(=O)N1CCc2c(c(N3CCCc4cc(-c5cnn(C)c5)c(C(F)F)cc43)nn2C2CCN(C3CC4(CCC(Oc5ncc(C(=O)NC6C(C)(C)C(Oc7ccc(C#N)c(Cl)c7)C6(C)C)cn5)CC4)C3)CC2)C1 (stereo not drawn) [Compound 395, 2-[2-[4-[5-acetyl-3-[7-(difluoromethyl)-6-(1-methylpyrazol-4-yl)-3,4-dihydro-2H-quinolin-1-yl]-6,7-dihydro-4H-pyrazolo[4,3-c]pyridin-1-yl]-1-piperidyl]spiro[3.5]nonan-7-yl]oxy-N-[3-(3-chloro-4-cyano-phenoxy)-2,2,4,4-tetramethyl-cyclobutyl]pyrimidine-5-carboxamide]	0.1 to 1 nM	< 1 nM
CC(=O)N1CCc2c(c(-c3cccc4cc(-c5ccc(C(=O)NC6CCN(c7ncc(C(=O)NC8C(C)(C)C(Oc9ccc(C#N)c(Cl)c9)C8(C)C)cn7)CC6)nc5)ncc34)nn2C2CCOCC2)C1 (stereo not drawn) [Compound 180, 2-[4-[[5-[8-(5-acetyl-1-tetrahydropyran-4-yl-6,7-dihydro-4H-pyrazolo[4,3-c]pyridin-3-yl)-3-isoquinolyl]pyridine-2-carbonyl]amino]-1-piperidyl]-N-[3-(3-chloro-4-cyano-phenoxy)-2,2,4,4-tetramethylcyclobutyl]pyrimidine-5-carboxamide]	≤ 0.1 nM	< 1 nM
